Laboratory results published in ChEMBL document CHEMBL4346729, “The discovery of novel 3-aryl-indazole derivatives as peripherally restricted pan-Trk inhibitors for the treatment of pain” (Bioorg Med Chem Lett, 2019).
Values after ≈ are worked out from the molar mass of the structure shown. Active and inactive are the calls of the source. The calls are words filed in the database; no cut-off is given here.

Experiments:
[1] = target: Calcium/calmodulin-dependent protein kinase type II subunit delta (Homo sapiens) (UniProt Q13557); assay: Inhibition of CAMK2D (unknown origin) at 20 nM using calmodulin as substrate incubated for 60 mins in presence of [33P]-ATP by scintillation counting method
Chain of Calcium/calmodulin-dependent protein kinase type II subunit delta (Homo sapiens) (Q13557 whole entry): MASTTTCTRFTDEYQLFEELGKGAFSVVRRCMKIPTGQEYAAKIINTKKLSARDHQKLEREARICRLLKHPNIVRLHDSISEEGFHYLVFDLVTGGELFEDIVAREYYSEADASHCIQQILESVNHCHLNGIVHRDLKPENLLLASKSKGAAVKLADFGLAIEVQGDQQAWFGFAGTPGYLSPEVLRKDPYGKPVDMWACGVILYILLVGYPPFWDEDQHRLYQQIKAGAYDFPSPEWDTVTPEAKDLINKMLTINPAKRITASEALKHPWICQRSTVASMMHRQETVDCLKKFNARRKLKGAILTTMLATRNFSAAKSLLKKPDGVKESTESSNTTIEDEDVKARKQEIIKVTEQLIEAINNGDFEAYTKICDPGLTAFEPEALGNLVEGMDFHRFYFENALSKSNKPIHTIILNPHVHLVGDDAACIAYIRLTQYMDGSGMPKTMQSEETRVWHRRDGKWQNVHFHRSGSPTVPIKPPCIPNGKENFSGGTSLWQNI

[2] = target: Glycogen synthase kinase-3 beta (Homo sapiens) (UniProt P49841); assay: Inhibition of recombinant human full length N-terminal GST/His6-tagged GSK3-beta (M1 to T420) expressed in Sf9 insect cells at 20 nM using phosphatidylserine as substrate incubated for 60 mins in presence of [33P]-ATP by scintillation counting method
Chain of Glycogen synthase kinase-3 beta (Homo sapiens) (P49841 whole entry, looked up): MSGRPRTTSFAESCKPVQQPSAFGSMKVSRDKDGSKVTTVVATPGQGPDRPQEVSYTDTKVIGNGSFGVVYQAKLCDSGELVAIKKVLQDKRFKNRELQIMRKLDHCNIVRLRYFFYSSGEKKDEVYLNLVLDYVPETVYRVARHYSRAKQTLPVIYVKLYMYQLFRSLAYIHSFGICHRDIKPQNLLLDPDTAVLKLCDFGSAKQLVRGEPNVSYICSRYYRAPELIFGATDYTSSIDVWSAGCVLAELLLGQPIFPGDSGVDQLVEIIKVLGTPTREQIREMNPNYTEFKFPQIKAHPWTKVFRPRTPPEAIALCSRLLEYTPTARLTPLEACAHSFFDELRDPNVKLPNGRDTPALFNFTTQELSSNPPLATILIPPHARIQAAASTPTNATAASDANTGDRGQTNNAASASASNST

[3] = target: Tyrosine-protein kinase Lyn (Homo sapiens) (UniProt P07948); assay: Inhibition of recombinant human full length N-terminal GST/His6-tagged LYN (M1 to P512) expressed in Sf9 insect cells at 20 nM using phosphatidylserine as substrate incubated for 60 mins in presence of [33P]-ATP by scintillation counting method
Chain of Tyrosine-protein kinase Lyn (Homo sapiens) (P07948 2-512 limits assumed): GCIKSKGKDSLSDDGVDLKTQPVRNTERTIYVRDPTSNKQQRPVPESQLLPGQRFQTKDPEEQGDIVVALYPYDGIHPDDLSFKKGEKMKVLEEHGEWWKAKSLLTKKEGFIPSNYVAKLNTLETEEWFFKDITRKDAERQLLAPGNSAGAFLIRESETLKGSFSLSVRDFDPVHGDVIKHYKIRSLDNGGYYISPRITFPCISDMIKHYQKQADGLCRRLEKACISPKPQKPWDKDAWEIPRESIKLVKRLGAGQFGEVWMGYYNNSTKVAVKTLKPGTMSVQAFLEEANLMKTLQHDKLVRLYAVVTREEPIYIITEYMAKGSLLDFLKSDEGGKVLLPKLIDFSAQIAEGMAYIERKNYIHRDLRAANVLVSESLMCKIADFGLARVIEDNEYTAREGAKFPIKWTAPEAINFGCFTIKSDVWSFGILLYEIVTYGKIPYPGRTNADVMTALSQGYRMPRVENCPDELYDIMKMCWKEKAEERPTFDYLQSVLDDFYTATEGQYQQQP

[4] = Unbound drug level in brain of CFA induced Sprague-Dawley rat at 4 mg/kg, po after 1 hr; format: ADME, organism-based; conditions: in vivo, BLD = below limit of detection
[5] = target: Serine/threonine-protein kinase Chk2 (Homo sapiens) (UniProt O96017); assay: Inhibition of CHK2 (unknown origin) at 20 nM using phosphatidylserine as substrate incubated for 60 mins in presence of [33P]-ATP by scintillation counting method
Chain of Serine/threonine-protein kinase Chk2 (Homo sapiens) (O96017 whole entry): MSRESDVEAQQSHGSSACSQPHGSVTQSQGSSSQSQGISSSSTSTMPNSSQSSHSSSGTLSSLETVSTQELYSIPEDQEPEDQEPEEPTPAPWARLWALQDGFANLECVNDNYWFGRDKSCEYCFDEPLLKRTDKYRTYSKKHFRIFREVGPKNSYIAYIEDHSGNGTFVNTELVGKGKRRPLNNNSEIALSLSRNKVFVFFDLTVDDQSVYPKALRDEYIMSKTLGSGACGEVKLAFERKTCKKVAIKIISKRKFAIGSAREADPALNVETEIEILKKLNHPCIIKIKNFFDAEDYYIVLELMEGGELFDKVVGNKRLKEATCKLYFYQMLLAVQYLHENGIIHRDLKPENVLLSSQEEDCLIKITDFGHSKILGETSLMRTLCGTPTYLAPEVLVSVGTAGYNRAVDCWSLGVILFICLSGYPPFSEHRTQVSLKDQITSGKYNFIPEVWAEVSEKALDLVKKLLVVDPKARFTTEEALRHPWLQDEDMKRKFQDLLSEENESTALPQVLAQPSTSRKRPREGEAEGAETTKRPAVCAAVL

[6] = Apparent permeability from apical to basolateral side in MDCK cells at 50 umol/L at pH 7.4 incubated for 30 mins by LC-MS/MS analysis; format: ADME, cell-based, Canis lupus familiaris; conditions: dog
[7] = Ratio of drug level in brain to plasma of Sprague-Dawley rat at 2.5 mg/kg, ip; format: ADME, organism-based; conditions: read-out: BPR
[8] = target: Mitogen-activated protein kinase 14 (Homo sapiens) (UniProt Q16539); assay: Inhibition of recombinant human full length p38-alpha (M1 to S360) expressed in Escherichia coli at 20 nM using phosphatidylserine as substrate incubated for 60 mins in presence of [33P]-ATP by scintillation counting method
[9] = Intrinsic clearance in human liver microsomes; format: ADME, Microsome; conditions: read-out: CLH
[10] = target: Aurora kinase A (Homo sapiens) (UniProt O14965); assay: Inhibition of recombinant human full length N-terminal GST/His6-tagged Aurora-A (M1 to S403) expressed in Sf9 insect cells at 20 nM using phosphatidylserine as substrate incubated for 60 mins in presence of [33P]-ATP by scintillation counting method
[11] = Solubility of test compound; format: physicochemical
[12] = target: Protein kinase C beta type (Homo sapiens) (UniProt P05771); assay: Inhibition of recombinant human full length N-terminal GST/His6-tagged PKC-beta2 (M1 to S673) expressed in Sf9 insect cells at 20 nM using phosphatidylserine as substrate incubated for 60 mins in presence of [33P]-ATP by scintillation counting method
[13] = target: Inhibitor of nuclear factor kappa-B kinase subunit beta (Homo sapiens) (UniProt O14920); assay: Inhibition of recombinant human full length N-terminal GST/His6-tagged IKK-beta (M1 to S756) expressed in Sf9 insect cells at 20 nM using phosphatidylserine as substrate incubated for 60 mins in presence of [33P]-ATP by scintillation counting method
Chain of Inhibitor of nuclear factor kappa-B kinase subunit beta (Homo sapiens) (O14920 whole entry): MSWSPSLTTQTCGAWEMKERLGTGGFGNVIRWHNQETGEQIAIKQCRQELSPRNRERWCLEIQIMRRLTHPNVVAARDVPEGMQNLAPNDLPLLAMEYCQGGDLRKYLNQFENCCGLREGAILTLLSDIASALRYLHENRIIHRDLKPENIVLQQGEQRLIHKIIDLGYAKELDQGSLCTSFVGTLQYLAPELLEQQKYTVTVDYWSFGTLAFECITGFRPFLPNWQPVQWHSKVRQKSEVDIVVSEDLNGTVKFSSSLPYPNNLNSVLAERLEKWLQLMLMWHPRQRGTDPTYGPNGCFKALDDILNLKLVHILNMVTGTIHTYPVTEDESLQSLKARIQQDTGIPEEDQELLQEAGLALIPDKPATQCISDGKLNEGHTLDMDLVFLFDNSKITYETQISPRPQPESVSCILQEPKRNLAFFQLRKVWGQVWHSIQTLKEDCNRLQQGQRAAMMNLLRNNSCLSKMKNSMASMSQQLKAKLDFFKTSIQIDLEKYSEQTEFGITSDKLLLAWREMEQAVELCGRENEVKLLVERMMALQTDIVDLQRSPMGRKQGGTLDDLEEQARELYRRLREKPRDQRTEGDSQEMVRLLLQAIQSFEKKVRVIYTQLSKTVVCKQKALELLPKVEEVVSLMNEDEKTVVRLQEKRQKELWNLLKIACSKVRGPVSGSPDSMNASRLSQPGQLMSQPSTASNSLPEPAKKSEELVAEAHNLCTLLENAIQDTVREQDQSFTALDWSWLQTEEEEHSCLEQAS

[14] = Protein binding in Sprague-Dawley rat plasma; format: ADME, cell-free; conditions: read-out: PPB (converted)
[15] = species on record: Homo sapiens; assay: Inhibition of PKA (unknown origin) at 20 nM using phosphatidylserine as substrate incubated for 60 mins in presence of [33P]-ATP by scintillation counting method
[16] = target: Ribosomal protein S6 kinase alpha-1 (Homo sapiens) (UniProt Q15418); assay: Inhibition of RPS6KA1 (unknown origin) at 20 nM using phosphatidylserine as substrate incubated for 60 mins in presence of [33P]-ATP by scintillation counting method
Chain of Ribosomal protein S6 kinase alpha-1 (Homo sapiens) (Q15418 whole entry): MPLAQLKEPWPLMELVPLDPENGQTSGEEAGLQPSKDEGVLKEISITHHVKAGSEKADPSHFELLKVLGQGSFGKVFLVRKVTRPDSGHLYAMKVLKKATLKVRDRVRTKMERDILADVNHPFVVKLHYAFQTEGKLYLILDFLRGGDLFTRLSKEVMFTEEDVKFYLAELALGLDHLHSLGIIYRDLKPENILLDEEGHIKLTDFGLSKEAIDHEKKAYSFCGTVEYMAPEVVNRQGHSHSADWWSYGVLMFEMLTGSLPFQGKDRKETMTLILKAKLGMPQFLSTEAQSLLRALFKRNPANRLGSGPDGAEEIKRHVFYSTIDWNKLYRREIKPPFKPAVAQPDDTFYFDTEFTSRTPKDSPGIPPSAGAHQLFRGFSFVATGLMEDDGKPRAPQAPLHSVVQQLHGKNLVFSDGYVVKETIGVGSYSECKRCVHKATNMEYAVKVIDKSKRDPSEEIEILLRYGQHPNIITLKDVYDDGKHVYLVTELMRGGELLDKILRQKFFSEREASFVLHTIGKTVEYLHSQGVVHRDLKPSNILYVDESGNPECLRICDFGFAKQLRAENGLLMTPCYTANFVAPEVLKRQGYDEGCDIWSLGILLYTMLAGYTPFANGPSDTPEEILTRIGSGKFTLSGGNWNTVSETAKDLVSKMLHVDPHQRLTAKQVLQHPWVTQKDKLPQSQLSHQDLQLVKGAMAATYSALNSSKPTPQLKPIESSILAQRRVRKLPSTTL

[17] = target: Rho-associated protein kinase 2 (Homo sapiens) (UniProt O75116); assay: Inhibition of recombinant human N-terminal GST/His6-tagged ROCK2 internal (P6 to S553) expressed in baculovirus infected Sf9 insect cells at 20 nM using phosphatidylserine as substrate incubated for 60 mins in presence of [33P]-ATP by scintillation counting method
[18] = target: Casein kinase II subunit alpha (Homo sapiens) (UniProt P68400); assay: Inhibition of recombinant human full length N-terminal GST and C-terminal His6-tagged CK2-alpha (M1 to Q391) expressed in Sf9 insect cells at 20 nM using phosphatidylserine as substrate incubated for 60 mins in presence of [33P]-ATP by scintillation counting method
[19] = target: RAC-alpha serine/threonine-protein kinase (Homo sapiens) (UniProt P31749); assay: Inhibition of recombinant human N-terminal GST/His6-tagged and C-terminal His6-tagged AKT1(V106 to A480) expressed in Sf9 insect cells at 20 nM using phosphatidylserine as substrate incubated for 60 mins in presence of [33P]-ATP by scintillation counting method
Chain of RAC-alpha serine/threonine-protein kinase (Homo sapiens) (P31749 whole entry): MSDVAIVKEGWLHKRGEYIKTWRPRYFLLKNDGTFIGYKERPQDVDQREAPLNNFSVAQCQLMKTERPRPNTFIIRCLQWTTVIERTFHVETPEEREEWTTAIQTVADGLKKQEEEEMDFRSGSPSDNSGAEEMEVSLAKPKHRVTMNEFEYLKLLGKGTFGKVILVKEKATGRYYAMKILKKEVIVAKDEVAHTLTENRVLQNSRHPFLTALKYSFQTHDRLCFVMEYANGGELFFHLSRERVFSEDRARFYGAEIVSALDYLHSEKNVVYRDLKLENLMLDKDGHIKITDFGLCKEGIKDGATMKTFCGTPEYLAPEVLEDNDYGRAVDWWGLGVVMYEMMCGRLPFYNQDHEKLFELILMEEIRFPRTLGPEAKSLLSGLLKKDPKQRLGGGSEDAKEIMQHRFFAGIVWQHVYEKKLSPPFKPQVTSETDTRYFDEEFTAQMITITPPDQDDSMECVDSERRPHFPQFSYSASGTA

[20] = Unbound drug level in brain of CFA induced Sprague-Dawley rat at 20 mg/kg, po after 1 hr; format: ADME, organism-based; conditions: in vivo
[21] = target: Proto-oncogene tyrosine-protein kinase Src (Homo sapiens) (UniProt P12931); assay: Inhibition of recombinant human full length N-terminal GST and C-terminal His6-tagged SRC (M1 to L536) expressed in Sf9 insect cells at 20 nM using phosphatidylserine as substrate incubated for 60 mins in presence of [33P]-ATP by scintillation counting method
[22] = system: Rattus norvegicus; assay: Antinociceptive activity in CFA induced thermal hypersensitivity Sprague-Dawley rat model assessed as increase in paw withdrawal latency at 100 mg/kg, po after 1 hr; format: functional, organism-based
[23] = system: Rattus norvegicus; assay: Unbound drug level in plasma of CFA induced Sprague-Dawley rat at 100 mg/kg, po after 1 hr; format: ADME, organism-based; conditions: in vivo
[24] = system: Rattus norvegicus; assay: Antinociceptive activity in CFA induced thermal hypersensitivity Sprague-Dawley rat model assessed as increase in paw withdrawal latency at 4 mg/kg, po after 1 hr; format: functional, organism-based
[25] = target: Serine/threonine-protein kinase MARK1 (Homo sapiens) (UniProt Q9P0L2); assay: Inhibition of recombinant human full length N-terminal GST/His6-tagged MARK1 (M1 to L780) expressed in Sf9 insect cells at 20 nM using phosphatidylserine as substrate incubated for 60 mins in presence of [33P]-ATP by scintillation counting method
Chain of Serine/threonine-protein kinase MARK1 (Homo sapiens) (Q9P0L2 whole entry, looked up): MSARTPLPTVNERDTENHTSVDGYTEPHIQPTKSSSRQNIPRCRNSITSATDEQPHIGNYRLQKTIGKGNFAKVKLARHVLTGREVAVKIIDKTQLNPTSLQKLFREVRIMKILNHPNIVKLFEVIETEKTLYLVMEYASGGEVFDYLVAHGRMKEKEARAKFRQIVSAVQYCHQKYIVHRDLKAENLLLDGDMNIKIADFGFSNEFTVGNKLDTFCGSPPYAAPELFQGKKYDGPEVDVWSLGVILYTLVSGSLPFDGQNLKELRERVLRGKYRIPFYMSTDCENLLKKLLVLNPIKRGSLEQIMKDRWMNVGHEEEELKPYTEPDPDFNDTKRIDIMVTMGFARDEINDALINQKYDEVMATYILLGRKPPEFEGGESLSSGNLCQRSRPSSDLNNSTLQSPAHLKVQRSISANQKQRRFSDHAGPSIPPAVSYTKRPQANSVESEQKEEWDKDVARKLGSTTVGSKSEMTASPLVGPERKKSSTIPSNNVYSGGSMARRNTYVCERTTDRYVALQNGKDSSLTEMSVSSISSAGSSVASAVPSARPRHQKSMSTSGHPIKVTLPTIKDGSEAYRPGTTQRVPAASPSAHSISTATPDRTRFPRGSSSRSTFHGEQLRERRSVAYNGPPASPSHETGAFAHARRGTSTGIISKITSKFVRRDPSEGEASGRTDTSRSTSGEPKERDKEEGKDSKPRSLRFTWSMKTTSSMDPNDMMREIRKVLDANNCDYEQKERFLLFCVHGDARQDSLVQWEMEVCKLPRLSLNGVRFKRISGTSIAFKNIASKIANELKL

[26] = target: Tyrosine-protein kinase SYK (Homo sapiens) (UniProt P43405); assay: Inhibition of recombinant human full length N-terminal GST and C-terminal His6-tagged SYK (M1 to N635) expressed in Sf9 insect cells at 20 nM using phosphatidylserine as substrate incubated for 60 mins in presence of [33P]-ATP by scintillation counting method
[27] = Unbound drug level in brain of CFA induced Sprague-Dawley rat at 100 mg/kg, po after 1 hr; format: ADME, organism-based; conditions: in vivo
[28] = target: Serine/threonine-protein kinase D2 (Homo sapiens) (UniProt Q9BZL6); assay: Inhibition of PRKD2 (unknown origin) at 20 nM using phosphatidylserine as substrate incubated for 60 mins in presence of [33P]-ATP by scintillation counting method

Cn1cc(-c2n[nH]c3ccc(NCc4cc(F)ccc4S(C)(=O)=O)cc23)cn1
inhibition [1]: 0%
inhibition [2]: 11%
inhibition [3]: -1%
Drug uptake(free) [4]: Bld
inhibition [5]: -1%
Papp A→B at 0.5 h, 50 µM [6]: 15.2 ×10⁻⁶ cm/s
Kp [7]: 0.03
inhibition [8]: -8%
CLint scaled [9]: 127 mL/min/kg
inhibition [10]: -7%
solubility [11]: 141 µM (≈ 56.2 µg/mL)
inhibition [12]: 5%
inhibition [13]: -7%
fraction unbound [14]: 0.134
inhibition [15]: -8%
inhibition [16]: 7%
inhibition [17]: 5%
inhibition [18]: 7%
inhibition [19]: 6%
Drug uptake(free) [20]: 1.5 nM
inhibition [21]: 2%
Activity [22]: Active
Cp(f) [23]: 266.5 nM
Activity [24]: Active
inhibition [25]: -8%
inhibition [26]: 4%
Drug uptake(free) [27]: 3.5 nM
inhibition [28]: -8%
